Results on five compounds are retold here after patent publication US5804603A, “Synthesized β-adrenergic blockers derivatives of guaiacol” (National Science Council, priority 1995, dated 1998).

Usually EC50 stands for the concentration needed to bring the measured effect to its halfway point. Higher therefore signals lower potency in that assay. The term LD50 denotes the dose expected to kill half of the subjects tested.

SMILES strings stand for the structures. Like-named read-outs stand apart in the source and are kept apart here.

Data set [1] deals with right eye of male Wistar rats. Put plainly: Eye wiping test (pain-producing potency). Type of data set: in vivo. To be noted: for pain producing potency: eye drops 10^-4 to 10^-2 M, 30 min, FIG. 1. The protocol:
The wiping test was performed as described by Szolcsanyiand, Jancso-Gabor. Briefly, the solution or suspension of the test compound and its analogs was made up in 10% ethanol, 5% Tween 80 and then diluted with saline to the required concentrations. Each solution or suspension of 10^-4 M, 10^-3 M, 10^-2 M was dropped into the right eye (vehicle being administered to the left eye as negative control) of male Wistar rats weighing 180-250 g and the total number of protective movements (scratching, wiping of the eye with the foreleg) was counted for 30 minutes. Each test was carried out with a total of 6 rats, and a dose-response curve was obtained from the mean value of each group.

Data set [2] is described as follows: Water solubility. Type of data set: physicochemical.
Data set [3] concerns the target β-receptor (Cavia porcellus, UniProt H0W3H1). Put plainly: Receptor binding assay, [3H]-dihydroalprenolol, heart ventricle membranes. To be noted: for IC50: FIG. 15 and Table 4.
Procedure: Method of receptor binding assay. After punching the heads of guinea pigs, the blood was drained and the heart ventricle immediately removed. The ventricles were placed in 10 vols. of ice-cold buffer (250 mM sucrose, 1 mM Magnesium Chloride, 50 mM Tris-HCl, pH 7.5) and all subsequent procedures were carried out at 4° C. The ventricles were homogenized using a homogenizer 3-4 times. The period of each homogenization took 15 seconds. […] The supernatant was further centrifuged at 10,000 g and the final pellet was resuspended in a small volume of 75 mM Tris buffer containing 25 mM Magnesium Chloride. The membrane protein content was determined by a protein assay dye. The receptor binding assay was initiated by incubating 100 μl of, a membrane protein solution with 50 μl of [^3 H]-dihydroalprenolol(^3 H-DHA) and the competing drugs. Additional buffer was added to increase the reaction volume up to 250 μl. The binding reaction was activated at 25° C. water by constantly shaking for 60 minutes. The binding reaction was stopped by diluting it with 1 ml of ice-cold assay buffer. The solution was then filtered on a Whatman GF/C glass fiber filter paper under vacuum suction. The filters were washed 3 times with ice-cold assay buffer and dried at 60±C. in an oven for 2 hrs. Then 4 ml of scintillation fluid was added and the radioactivity was counted on β-counter.
Data set [4] deals with acetic acid-induced writhing syndrome. Put plainly: Acetic acid-induced writhing (antinociceptive test). Type of data set: in vivo, male mice (ddk strain). As for the experimental part:
Following the method described by Koster antinociceptive tests were carried out in male mice after intraperitoneal administration of test solution. […] The test solution was administered by intraperitoneal injection of a single dose 0.2 ml (vehicle administered as control). Twenty minutes after injection, 0.2 ml of 0.7% acetic acid was injected intraperitoneally to induce writhing.
In general terms: Writhing tests count abdominal constrictions after an irritant is injected.

Data set [5] has as its target T1, β2 adrenergic receptor (Rattus norvegicus, UniProt P10608).
T1 construct: from tissue; host or cells: rat uterus horns (isolated organ, stilbestrol and reserpine pretreated)
Put plainly: Antagonism of isoproterenolol on isolated rat uterus horns. Type of data set: cell-based. As for the experimental part:
Female rats were intraperitonealy injected with stilbestrol (1 mg/kg) to elevate the sensitivity of β2 adrenergic receptor in uterus horns. The rats were subsequently administered reserpine to deplete the catecholamine in uterus. The isolated uterus horns were treated with phenoxybenzamine to block the neuronal uptake and the interaction between neuron cells and the adrenergic receptor.

The test system of data set [6] is platelet aggregation induced by collagen. Put plainly: Collagen-induced platelet aggregation in platelet rich plasma. Particulars: 10 μg/ml collagen, PRP. Type of data set: cell-based.
Procedure: A monophasic aggregation curve was observed when 10 μg/ml of collagen was added to platelet rich plasma (PRP).
Data set [7] deals with heart rate and blood pressure. Put plainly: Heart rate and blood pressure of anesthetized rats (i.v.). Type of data set: in vivo. From the text: […]. The effect of DZN on heart rate and blood pressure were monitored.
[…]. Exp. Ther., vol. 96, 99-113). The ID50 value is the response of a β drug which produces a response in 50% of […].

The nature of data set [8]: in vivo. To be noted: mouse, mice, read-out: LD50 (95% C.L.).
In data set [9] the target is T2, β1 adrenergic receptor (Cavia porcellus, UniProt H0W3H1).
T2 construct: isolated guinea pig right atrium; from tissue; host or cells: guinea pig right atrium (isolated organ)
T2 sequence (H0W3H1 1-470): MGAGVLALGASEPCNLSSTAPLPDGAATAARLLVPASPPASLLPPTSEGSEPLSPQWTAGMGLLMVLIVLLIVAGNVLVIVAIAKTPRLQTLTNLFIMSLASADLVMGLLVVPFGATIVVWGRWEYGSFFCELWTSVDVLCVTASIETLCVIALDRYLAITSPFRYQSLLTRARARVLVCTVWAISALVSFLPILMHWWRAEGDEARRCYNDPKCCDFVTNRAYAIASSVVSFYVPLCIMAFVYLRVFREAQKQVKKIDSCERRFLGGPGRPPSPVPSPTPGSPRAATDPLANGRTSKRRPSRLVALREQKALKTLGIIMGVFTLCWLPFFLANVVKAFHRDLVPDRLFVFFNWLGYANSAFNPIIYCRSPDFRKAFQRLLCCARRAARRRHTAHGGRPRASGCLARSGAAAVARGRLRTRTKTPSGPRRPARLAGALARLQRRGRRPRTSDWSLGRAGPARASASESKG
Put plainly: Antagonism of isoproterenolol on isolated guinea pig right atrium. Type of data set: cell-based. From the text: (§1) A bath as described in Gen.
(§2) The determination of the pA2 is made from experiments in which a fixed concentration of the antagonist is used along with graded concentrations of an agonist acting on the same receptor. The presence of the antagonist shifts the agonist dose-response curve to the right.

Data set [10] concerns β1 adrenergic receptor. The description is as above. Type of data set: cell-based.
Excerpt: as §1, §2

Data set [11] has as its system isolated portal veins. To be noted: mice; cited from earlier work.
In data set [12] the test system is blood vessels. To be noted: mouse and rat; cited from earlier work.
Data set [13] deals with carrageenin-induced paw edema. To be noted: in vivo; cited from earlier work.
Data set [14] concerns platelets. To be noted: cited from earlier work.
Data set [15] concerns intraocular pressure. To be noted: in vivo; cited from earlier work.

T1 sequence (P10608 whole entry): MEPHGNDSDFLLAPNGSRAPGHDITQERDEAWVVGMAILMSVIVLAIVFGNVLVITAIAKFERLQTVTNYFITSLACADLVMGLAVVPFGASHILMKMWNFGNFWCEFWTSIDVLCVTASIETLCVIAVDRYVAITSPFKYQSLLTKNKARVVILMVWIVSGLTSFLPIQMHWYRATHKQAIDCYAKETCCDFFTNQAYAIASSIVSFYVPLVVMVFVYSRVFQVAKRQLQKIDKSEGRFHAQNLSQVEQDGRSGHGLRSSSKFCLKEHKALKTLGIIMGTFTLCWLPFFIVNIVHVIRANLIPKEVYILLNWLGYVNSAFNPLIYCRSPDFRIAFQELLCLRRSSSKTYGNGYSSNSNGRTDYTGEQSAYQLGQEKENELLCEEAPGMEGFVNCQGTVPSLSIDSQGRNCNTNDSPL
β-receptor, sequence (H0W3H1 1-470): as the sequence (H0W3H1 1-470) above

Consider `COc1cc(C=CC(C)=O)ccc1OCC(O)CNC(C)(C)C` (racemic) [DZBN, 4-[4'-(2-hydroxy-3-tert-butylaminopropoxy)-3'-methoxyphenyl]-3-buten-2-one], for which the pain producing potency entry in data set [1] is “lower than that of DZ and zingerone”. Also, the pungency result in [1] (rat, in vivo) is reported as “lower pungency”. The water solubility entry in [2] is “watersoluble”. Also, in [3], the concentration giving a half-maximal response (EC50) was 3600 nM and the “IC50” value is “close to the IC50 values of the well known β-adrenergic agonist Atenolol”.
In the case of `COc1cc(C=CC(C)=O)ccc1OCC(O)CNC(C)C` (racemic) [DZN, 4-[4'-(2-hydroxy-3-isopropylaminopropoxy)-3'-methoxyphenyl]-3-buten-2-one], in data set [4] (1.25 mg/kg i.p., N = 8), the Protection amounted to 86.06%. Moreover, the “Writhes No. (Ave. ± S.E.)” value in data set [4] (1.25 mg/kg i.p., N = 8) was found to be 11.17 ± 2.36. For the same compound, the ED50 was 0.11 mg/kg in data set [4] (Mus musculus, ip, mice, Litchfield and Wilcoxon method, read-out: ED50 (95% C.I.)); 0.22 mg/kg in data set [7] (Rattus norvegicus, iv, anesthetized rats, Litchfield method, read-out: ID50 : heart rate response (95% C.I.)). The Potency ratio in [4] (relative to DZ = 1.00) is recorded as 3.50. Moreover, the “shift of isoproterenolol concentration-effect curve” value is “partially shift to the right” in [5] (10^-8 -10^-6 M DZN, rat uterus horns) and “partially shifted to the right” in data set [9] (guinea pig right atrium). The “slope of regression (Schild plot), β2” value in data set [5] (rat uterus) amounted to 0.99±0.11. The Kb in [5] (read-out: pA2, β2 (converted)) is 29.5 nM; in data set [9] (read-out: pA2, β1 (converted)), 6.92 nM. Also, the “inhibition of collagen-induced platelet aggregation” value in data set [6] is recorded as “dose-dependent inhibition of platelet aggregation”. Also, in [6] (Platelet, FIG. 18, read-out: concentration completely inhibiting platelet aggregation), the IC100 stood at 250 µM. In addition, the duration of bradycardia entry in [7] (i.v. 0.1, 0.5, 1.0 mg/kg) is given as “over 1 hr”. Moreover, the bradycardia entry in data set [7] (i.v. 0.1, 0.5, 1.0 mg/kg, FIGS. 3-6) is listed as “dose-dependent bradycardia”. In data set [7] (i.v., anesthetized rats, Litchfield method, listed as DZH (compound 4)), the “ID50 : heart rate response (95% C.I.)” value is recorded as 0.22 (1.29-0.04) mg/kg. Also, in data set [7] (i.v., statistical significance not found), the “time of slightly reduced blood pressure after injection” value fell in the range of 5 to 10 min. In addition, the “effect on blood pressure induced by isoproterenolol” value in data set [7] (rat, in vivo) is “lowered the blood pressure induced by isoproterenolol”. For the same compound, in data set [7] (rat, in vivo), the “effect on resting heart rate” value is “reduced resting heart rate”. In data set [1], the pain producing potency result was “lower than that of DZ and zingerone”. The same compound displayed an EC50 in data set [3] of 1300 nM. In addition, the “IC50” value in data set [3] is listed as “close to the IC50 values of the well known β-adrenergic agonist Atenolol”. Moreover, the LD50 in data set [8] (ip) and in data set [8] (po) was > 1000 mg/kg in each case. For the same compound, in [9] (guinea-pig right atrium), the “slope of regression (Schild plot), β1” value was determined as 0.96 ± 0.05. Besides, the Cardioselectivity ratio in data set [10] is given as 4.26.
In the case of `CCCCC[C@H](O)CC(=O)CCc1ccc(O)c(OC)c1` [Gingerol], the “contraction of isolated portal veins” value in data set [11] was “suppresses the contraction of isolated portal veins in mice”. The “eicosanoid-induced contraction of blood vessels” value in data set [12] is “modulates the eicosanoid-induced contraction of mouse and rat blood vessels”.
`CCCCC/C=C/C(=O)CCc1ccc(O)c(OC)c1` [Shogaol]: the carrageenin-induced paw edema entry in data set [13] is recorded as “inhibitory activity”. Also, in data set [14], the platelet aggregation result is recorded as “inhibitory activity”.
For `COc1cc(C=CC(C)=O)ccc1OCC(O)CNC(C)(C)C` (centres unmarked) [Vaninolol], in data set [15], the “intraocular pressure (IOP)” value is “lower the intraocular pressure (IOP)”.
